# Source: ChEMBL document CHEMBL4665834 (J Med Chem, 2020)
# Legend:
# [1] = Relative oral bioavailability in Wistar rat at 1 to 3 mg/kg administered via gavage in 99.5% water, 0.5% Tylose and TRIS salt formulation by LC-MS/MS analysis; assay type: ADME, organism-based; conditions: in vivo, dose 1-3 mg/kg
# [2] = Efflux ratio of apparent permeability across basolateral to apical side over apical to basolateral side in human Caco-2 cells measured after 2 hrs by HPLC analysis; assay type: ADME, cell-based
# [3] = Clearance in Wistar rat hepatocytes assessed as extrapolated blood clearance at 1 uM measured after 2 to 90 mins by LC-MS/MS analysis; assay type: ADME, cell-based, Hepatocyte; conditions: time 2-90 min
# Homo sapiens [4] = species on record: Homo sapiens; experiment: Selectivity ratio of IC50 for displacement of [3H]prostaglandin E2 from full-length recombinant human EP4 receptor expressed in Chem-1 cell membranes to IC50 for displacement of [3H]PGF2alpha from full-length recombinant human FP receptor expressed in HEK293 cell membranes
# Homo sapiens [5] = species on record: Homo sapiens; experiment: Selectivity ratio of IC50 for displacement of [3H]PGD2 from full-length recombinant human DP1 receptor expressed in Chem-1 cell membranes to IC50 for displacement of [3H]PGF2alpha from full-length recombinant human FP receptor expressed in HEK293 cell membranes
# [6] = Lipophilicity, log D of compound at pH 7.5 by HPLC analysis; conditions: buffer
# Cytochrome P450 3A4 = Cytochrome P450 3A4 (Homo sapiens, UniProt P08684); experiment: Inhibition of CYP3A4 in human liver microsomes using midazolam as substrate incubated for 10 mins in presence of NADPH generating system by LC-MS/MS analysis
# Sequence of Cytochrome P450 3A4 (P08684 whole entry, the tested form may be a part): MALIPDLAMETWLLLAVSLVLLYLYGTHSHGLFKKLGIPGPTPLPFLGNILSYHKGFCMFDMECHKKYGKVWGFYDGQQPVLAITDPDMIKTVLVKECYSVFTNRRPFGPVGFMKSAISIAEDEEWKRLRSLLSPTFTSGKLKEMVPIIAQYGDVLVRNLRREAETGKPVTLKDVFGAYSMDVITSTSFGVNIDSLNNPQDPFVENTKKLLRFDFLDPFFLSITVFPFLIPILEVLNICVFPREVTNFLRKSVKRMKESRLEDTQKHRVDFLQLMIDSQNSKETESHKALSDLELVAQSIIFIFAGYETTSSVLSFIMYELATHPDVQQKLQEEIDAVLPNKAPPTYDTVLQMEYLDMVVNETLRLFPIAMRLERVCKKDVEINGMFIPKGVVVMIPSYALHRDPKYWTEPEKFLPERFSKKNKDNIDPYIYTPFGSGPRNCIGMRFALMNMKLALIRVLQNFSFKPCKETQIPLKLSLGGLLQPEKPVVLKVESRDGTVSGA
# [7] = Clearance in Wistar rat at 0.3 to 1 mg/kg, iv administered as bolus dose or 15 mins infusion by LC-MS/MS analysis; assay type: ADME, organism-based; conditions: Wistar, in vivo, dose 0.3-1 mg/kg
# Homo sapiens [8] = species on record: Homo sapiens; experiment: Selectivity ratio of IC50 for displacement of [3H]PGD2 from full-length recombinant human IP receptor expressed in HEK293 cell membranes to IC50 for displacement of [3H]PGF2alpha from full-length recombinant human FP receptor expressed in HEK293 cell membranes
# Homo sapiens [9] = species on record: Homo sapiens; experiment: Selectivity ratio of IC50 for displacement of [3H]prostaglandin E2 from full-length recombinant human EP2 receptor expressed in HEK293 cell membranes to IC50 for displacement of [3H]PGF2alpha from full-length recombinant human FP receptor expressed in HEK293 cell membranes
# Homo sapiens [10] = species on record: Homo sapiens; experiment: Selectivity ratio of IC50 for displacement of [3H]prostaglandin E2 from full-length recombinant human EP1 receptor expressed in HEK293 cell membranes to IC50 for displacement of [3H]PGF2alpha from full-length recombinant human FP receptor expressed in HEK293 cell membranes
# Homo sapiens [11] = species on record: Homo sapiens; experiment: Selectivity ratio of IC50 for displacement of [3H]prostaglandin E2 from full-length recombinant human EP3 receptor expressed in HEK293 cell membranes to IC50 for displacement of [3H]PGF2alpha from full-length recombinant human FP receptor expressed in HEK293 cell membranes
# [12] = Relative oral bioavailability in Wistar rat at 1 to 3 mg/kg administered via gavage using crystalline form of sample in sodium salt formulation by LC-MS/MS analysis; assay type: ADME, organism-based; conditions: in vivo, dose 1-3 mg/kg
# [13] = molecular target: T1, Prostaglandin F2-alpha receptor (Homo sapiens, UniProt P43088); experiment: Antagonist activity at human FPR expressed in human Chem-1 cells assessed as inhibition of PGF2alpha-induced calcium flux preincubated for 10 mins followed by PGF2alpha stimulation and measured for 120 secs by fluo-8 AM dye based fluorescence assay; assay type: functional, cell-based
# T1 sequence (P43088 whole entry): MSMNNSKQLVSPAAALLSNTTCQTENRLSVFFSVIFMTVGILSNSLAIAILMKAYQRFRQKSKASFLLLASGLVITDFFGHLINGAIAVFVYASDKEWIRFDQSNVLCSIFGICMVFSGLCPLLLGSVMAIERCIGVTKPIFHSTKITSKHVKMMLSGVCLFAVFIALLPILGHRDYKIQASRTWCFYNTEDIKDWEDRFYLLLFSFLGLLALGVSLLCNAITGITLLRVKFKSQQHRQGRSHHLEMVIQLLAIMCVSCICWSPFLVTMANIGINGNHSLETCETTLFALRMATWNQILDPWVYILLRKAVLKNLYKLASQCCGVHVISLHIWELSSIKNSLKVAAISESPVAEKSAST
# [14] = Maximum oral bioavailability in rat hepatocytes based well stirred liver model at 1 uM measured after 2 to 90 mins by LC-MS/MS analysis; assay type: ADME, Hepatocyte; conditions: time 2-90 min, read-out: Fmax
# [15] = Oral bioavailability in Wistar rat at 1 to 3 mg/kg administered via gavage using EtOH/PEG400/H2O 10/40/50 formulation by LC-MS/MS analysis; assay type: ADME, organism-based; conditions: in vivo, dose 1-3 mg/kg
# [16] = Half life in Wistar rat at 0.3 to 1 mg/kg, iv administered as bolus dose by LC-MS/MS analysis; assay type: ADME, organism-based; conditions: in vivo, dose 0.3-1 mg/kg
# [17] = Apparent permeability in human Caco-2 cells measured after 2 hrs by HPLC analysis; assay type: ADME, cell-based
# [18] = Solubility of compound in water using crystalline form of sample; assay type: physicochemical
# [19] = Clearance in Wistar rat at 0.3 to 1 mg/kg, iv administered as bolus dose by LC-MS/MS analysis; assay type: ADME, organism-based; conditions: in vivo, dose 0.3-1 mg/kg
# [20] = molecular target: T1, Prostaglandin F2-alpha receptor; experiment: Displacement of [3H]PGF2alpha from full-length recombinant human FP receptor expressed in HEK293 cell membranes measured after 60 mins by scintillation counting method
# [21] = Protein binding in pooled human plasma assessed as unbound fraction incubated for 6 hrs by LC-MS/MS analysis based equilibrium dialysis method; assay type: ADME, cell-free
logD [6],IC50 (Cytochrome P450 3A4) [µM],clearance [7] [mL/min/kg],IC50 [13] [nM],Structure (SMILES),Ratio IC50 (Homo sapiens [4]),Ratio IC50 (Homo sapiens [5]),Ratio IC50 (Homo sapiens [8]),Ratio IC50 (Homo sapiens [9]),Ratio IC50 (Homo sapiens [10]),Ratio IC50 (Homo sapiens [11]),further results
2,> 20,21.7,–,Cc1c(-c2ccccc2)nc2ccc(I)cc2c1C(=O)Nc1ccc(C(=O)O)cc1F,15,> 86,> 86,> 86,> 86,> 86,–
2.1,–,–,–,O=C(O)c1ccc(NC(=O)c2c(Cl)c(-c3ccccc3)nc3ccc(Br)cc23)c(F)c1,14,> 38,> 38,> 38,> 38,> 38,–
2.2,> 20,20,250,Cc1c(-c2ccccc2)nc2ccc(Br)cc2c1COc1ccc(C(=O)O)cc1F,20,–,–,–,–,–,–
2.6,–,–,3400,Cc1c(-c2ccccc2)nc2ccc(Br)cc2c1C(=O)NCCc1cccnc1,> 7.7,–,–,–,–,–,Fh at 1 µM [14]: 4%
1.4,> 20,–,–,Cc1c(C(=O)Nc2ccc(C(=O)O)cc2F)c2cc(Br)ccc2[n+]([O-])c1-c1ccccc1,53,> 91,> 91,> 91,> 91,> 91,–
2.1,> 20,40,–,Cc1c(-c2ccccc2)nc2ccc(C(F)(F)F)cc2c1C(=O)Nc1ccc(C(=O)O)cc1F,13,> 64,> 64,> 64,> 64,> 64,–
–,13,33.3,–,Cc1c(-c2ccccc2)nc2ccc(Br)cc2c1C(=O)NCC(CCCC(=O)O)c1ccccc1Cl (stereo in doubt; 44),–,–,–,–,–,–,Papp at 2 h [17]: 40.1 ×10⁻⁶ cm/s
–,–,–,5.2,Cc1c(-c2ccccc2)nc2ccc(Br)cc2c1C(=O)Nc1ccc(-c2nnn[nH]2)cc1F,50,–,–,–,–,–,clearance [19]: 50 mL/min/kg; efflux ratio at 2 h [2]: 10
1.9,> 20,23.3,150,Cc1c(-c2ccccc2)nc2ccc(Br)cc2c1C(=O)Nc1ccc(C(=O)O)cc1,10,> 110,> 110,> 110,> 110,> 110,–
1.9,> 20,–,1100,COc1ccc(C(CNC(=O)c2c(C)c(-c3ccccc3)nc3ccc(Br)cc23)CC(=O)O)cc1 (racemic),> 63,–,–,–,–,–,–
2.1,> 20,20,–,Cc1c(-c2ccccc2)nc2ccc(C(C)(C)C)cc2c1C(=O)Nc1ccc(C(=O)O)cc1F,170,> 87,> 87,> 87,> 87,> 87,–
3.1,–,–,190,Cc1c(-c2ccccc2)nc2ccc(Br)cc2c1C(=O)NCC(C)c1ccccn1 (racemic),–,–,–,–,–,–,Fh at 1 µM [14]: 24%
–,–,–,200,Cc1c(-c2ccccc2)nc2ccc(Br)cc2c1C(=O)NCCc1ccccn1,–,–,–,–,–,–,Fh at 1 µM [14]: 7%
–,–,63.3,14,"COc1ccccc1C(C)CNC(=O)c1c(C)c(-c2ccccc2)nc2ccc(Br)cc12 (single isomer, unassigned; (-))",–,–,–,–,–,–,Fh at 1 µM [14]: 6%; IC50 [20]: < 1 nM; fraction unbound at 6 h [21]: < 0.01; CLhep predicted at 1 µM [3]: 65 mL/min/kg
–,–,55,–,Cc1c(-c2ccccc2)nc2ccc(Br)cc2c1C(=O)NCC(C(=O)O)c1ccccc1Cl (stereo in doubt; 31),–,–,–,–,–,–,Fh at 1 µM [14]: 78%; CLhep predicted at 1 µM [3]: 15 mL/min/kg

# The next lines start with the molecule.
Structure (SMILES),logD [6],IC50 (Cytochrome P450 3A4) [µM],clearance [7] [mL/min/kg],IC50 [13] [nM],Ratio IC50 (Homo sapiens [4]),Ratio IC50 (Homo sapiens [5]),Ratio IC50 (Homo sapiens [8]),Ratio IC50 (Homo sapiens [9]),Ratio IC50 (Homo sapiens [10]),Ratio IC50 (Homo sapiens [11]),further results
Cc1c(-c2ccccc2)nc2ccc(Br)cc2c1C(=O)Nc1ccc(C(=O)O)cc1F.NC(CO)(CO)CO,–,–,–,–,–,–,–,–,–,–,bioavailability [1]: 37%
Cc1c(-c2ccccc2)nc2ccc(Br)cc2c1C(=O)Nc1ccc(C(N)=O)cc1F,–,–,–,–,16,–,–,–,–,–,efflux ratio at 2 h [2]: 18; CLhep predicted at 1 µM [3]: 58.3 mL/min/kg
"CCC1CCCN(c2nc3ccc(Br)cc3c(C(=O)NCC(CCC(=O)O)c3ccccc3Cl)c2C)C1 (single isomer, unassigned; 53)",–,–,–,–,> 580,> 580,> 580,> 580,> 580,> 580,–
Cc1c(-c2ccccc2)nc2ccc(Br)cc2c1C(=O)Nc1ccc(C(=O)[O-])cc1F.[Na+],–,–,–,–,–,–,–,–,–,–,bioavailability [12]: 29%
"Cc1c(-c2ccccc2)nc2ccc(Br)cc2c1C(=O)NCC(CCC(=O)O)c1ccccc1Cl (single isomer, unassigned; (+)) [listing 1 of 2 here]",2.2,> 20,30,9,–,–,–,–,–,–,bioavailability [15]: 75%; half-life [16]: 330 min
Cc1c(-c2ccccc2)nc2ccc(Br)cc2c1C(=O)Nc1ccc(C(=O)O)cc1F,–,–,–,–,16,> 76,> 76,> 76,> 76,> 76,–
Cc1c(-c2ccccc2)nc2ccc(Br)cc2c1C(=O)NC12CCC(C(=O)O)(CC1)CC2.NC(CO)(CO)CO,–,–,–,–,–,–,–,–,–,–,bioavailability [1]: 79%
Cc1c(N2CCCC2)nc2ccc(Br)cc2c1C(=O)NC[C@H](CCC(=O)O)c1ccccc1Cl.Cl,–,–,–,–,–,–,–,–,–,–,solubility [18]: 2300 µg/mL
"Cc1c(-c2ccccc2)nc2ccc(Br)cc2c1C(=O)NCC(CCC(=O)O)c1ccccc1Cl (single isomer, unassigned; (+)) [listing 2 of 2 here]",–,–,–,–,> 6300,> 6300,> 6300,> 6300,> 6300,> 6300,–
Cc1c(C(=O)Nc2ccc(C(=O)O)cc2F)c2cc(Br)ccc2c(=O)n1-c1ccccc1,1.6,> 20,100,40,170,> 1600,> 1600,> 1600,> 1600,> 1600,Papp at 2 h [17]: 3.9 ×10⁻⁶ cm/s; efflux ratio at 2 h [2]: 7.4
Cc1c(-c2ccccc2)nc2ccc(Br)cc2c1C(=O)NC12CCC(C(=O)[O-])(CC1)CC2.[Na+],–,–,–,–,–,–,–,–,–,–,bioavailability [12]: 80%
"Cc1c(-c2ccccc2)nc2ccc(Br)cc2c1C(=O)NCC(CCC(=O)O)c1ccccc1Cl (single isomer, unassigned; (-))",–,–,–,–,> 8200,> 8200,> 8200,> 8200,> 8200,> 8200,–
"CCC1CCCN(c2nc3ccc(Br)cc3c(C(=O)NCC(CCC(=O)O)c3ccccc3Cl)c2C)C1 (single isomer, unassigned; 55)",–,–,–,–,> 300,> 300,> 300,> 300,> 300,> 300,–
"CCC1CCCN(c2nc3ccc(Br)cc3c(C(=O)NCC(CCC(=O)O)c3ccccc3Cl)c2C)C1 (single isomer, unassigned; 54)",–,–,–,–,> 180,> 180,> 180,> 180,> 180,> 180,–
"CCC1CCCN(c2nc3ccc(Br)cc3c(C(=O)NCC(CCC(=O)O)c3ccccc3Cl)c2C)C1 (single isomer, unassigned; 52)",–,–,–,–,> 180,> 180,> 180,> 180,> 180,> 180,–
